One assay has as its target T1, Hsp90α (Homo sapiens, UniProt P07900).
T1 construct: purchased Stressgen Bioreagents SPP-776
The assay can be described thus: Human Hsp90α fluorescence polarization competition assay with Example 37 tracer. The conditions noted are these: displacement of 50 nM example 37 tracer, 125 nM Hsp90α, 1 h 30 min, 20° C.; read-out: Relative binding affinity values (IC50) obtained from FP measurements. The source says:
The aim of this study was to determine the binding ability of compounds of the invention to the N-terminal ATP binding site of Hsp90. For that purpose competition assays with fluorescently labeled Hsp90 binders were used (compounds of examples 37 and 41).
Compounds of examples 37 and 41 are structurally based on 8-(6-Iodo-benzo[1,3]dioxol-5-ylsulfanyl)-9-(3-isopropylamino-propyl)-9H-purin-6-ylamine, a known binder of the N-terminal ATP binding site of Hsp90 which has the ability of inhibiting the Hsp90 function (cf. Chiosis G. et al. “Identification of Potent Water Soluble Purine-Scaffold Inhibitors of the Heat Shock Protein 90”, J. Med. Chem., 2006, vol. 49, no. 1, p. 381). Compounds 37 and 41 keep the essential structural features of the known binder (which means that said compounds are able to bind to the ATP binding site) and incorporate a fluorescent probe which allows the detection of the binding by fluorescence polarization.
When the binders of examples 37 and 41 are used in the competition assay, in a first step said binders are allowed to interact with the N-terminal ATP binding site of Hsp90. Then the compounds of the invention are added and it is determined if they are able to bind to the N-terminal ATP binding site (which will imply that the binders of examples 37 and 41 have been replaced from the N-terminal ATP binding site). If after performing the assay, the binding between the tested compound of the invention and the Hsp90 is observed, this will be indicative that the compound of the invention has been bound to the ATP binding site of Hsp90 and, therefore, can inhibit the Hsp90.
Once compounds of examples 37 and 41 were synthesized as reported above, they were dissolved at 238 μM and 1 mM in DMSO respectively (Sigma-Aldrich, cat. No. 154938). Hsp90α was purchased from Stressgen Bioreagents (cat. No. SPP-776; Victoria, Canada). The assay buffer contained 100 mM Tris·HCl, pH 7.4, 20 mM KCl, 6 mM MgCl2. Before each use 5 μg/mL bovine serum albumin (BSA, Pierce, Rockford (Ill.), cat No. 23209), 0.25 mM TCEP (Sigma, cat No. 64706) and 0.01% NP40 (Nonidet P40 Substitute, Fluka, cat No. 74385) were freshly added (cf. Howes et al., “A fluorescence polarization assay for inhibitors of Hsp90”, Analytical Biochemistry, 2006, vol. 350, p. 202-213; Kim et al., “Development of a fluorescence polarization assay for the molecular chaperone Hsp90”, J. Biomol. Screen., 2004, vol. 9 (5)).
Fluorescence polarization measurements were performed on an Infinite F200 (Tecan, Austria). Measurements were taken in black 96-well microplates (Corning Costar No. 3650) in which both the excitation and the emission occurred from the top of the wells. In the Infinite F200, a xenon arc lamp provides excitation light that passes through a 485 nm (20-nm bandwidth) excitation filter and then a polarizer filter. A beam splitter filter directs the polarized excitation light into the well, and emitted fluorescence transmits back through the same beam-splitter filter, through a polarizer filter, and then through a 535 nm (25-nm bandwidth) emission filter for detection (Kim et al., supra). The read time per well was 20 μs, and the number of reads per well was 25.
Compounds were assayed over a three-fold dilution series in a 96-well plate format to determine IC50 values. The serial dilution was performed in a separate 96-well plate (Thermowell 96 well PCR plate, Non-Treated Polypropylene, Corning Costar No. 6551) at 50 times final assay concentration in DMSO. (Howes et al, supra). 2 μl of compound was transferred to a black 96-well plate (Corning Costar No. 3650) and 98 μL of reaction solution (100 mM Tris·HCl, pH 7.4, 20 mM KCl, 6 mM MgCl2, 5 μg/mL bovine serum albumin (BSA), 0.25 mM TCEP, 0.01% NP40, 50 nM the compound of example 37, 125 nM Hsp90α) was added per well. The plate was allowed to equilibrate for 1 h 30 min on a slow moving shaker at 20° C. in the dark. […]
Background: Polarisation of emitted light reports the rotation of a fluorescent probe.

The next assay deals with HCT-116. The assay can be described thus: Cell growth inhibition by AlamarBlue method, HCT-116. Particulars: Homo sapiens; HCT-116, 72 hours; read-out: Cell growth inhibition values (EC50) obtained with AlamarBlue method. Type of assay: cell-based. The procedure: (§1) The human colon cancer cell line HCT-116 and the human breast cell lines MCF-7 and SKBr3 were from the American Type Culture Collection (ATCC; CCL-247, HTB-22 and HTB-30, respectively).
(§2) The HCT-116 and SKBr3 cell lines were maintained in DMEM GlutaMAX (Invitrogen) supplemented with 10% fetal calf serum and the MCF-7 cell line was maintained in RPMI1640 GlutaMAX (Invitrogen) containing 1 mM sodium pyruvate and 10% fetal calf serum. Cells were grown in a humidified incubator at 37° C. in 5% CO2
(§3) Cells were plated in 96-well plates (Costar, 3596) at a density of 6000 cells/well in 50 μL medium 24 h before addition of the compounds. Compounds were then added in 8 concentrations, each in triplicate (dilution series of 1 to 3). To do so, a compound-dilution plate at 200× the screening concentrations was prepared in DMSO 100% (Sigma, 154938). Then, 1.7 μL of the 200× diluted compounds were transferred to a new plate and 170 μL of media were added and mixed with the pipette (plate at 2×). Columns 11 and 12 of this plate (controls) were filled with 1% DMSO in cell media (i.e. 1.7 μL DMSO and 170 μL cell media). Finally, 50 μL of this intermediate plate at 2× were transferred to the plate containing the seeded cells and slowly shaken manually. Cells were grown as described above. AlamarBlue viability assay (Biosource, Invitrogen, DAL1100) was performed 72 hours later following manufacturer's protocol. In brief, AlamarBlue diluted in media was added to cells to have a 5% solution (a 2× solution was prepared in media and 100 μL of this solution were transferred to each well, i.e. final volume of 200 μL). Cells were incubated at 37° C., 3 hours and at room temperature for an additional 30 min. Cells with no compound and, cells with no compound and lysed with triton X-100 (30 μL/well added 10 min before treatment with AlamarBlue) were used as controls (6 replicates of each). Fluorescence was monitored at 530 nm excitation and 590 nm emission wavelengths. Results were quantified using ELx800 Universal Microplate Reader (Bio-Tek Instruments, Inc.). EC50 were calculated as the dose of compound required to inhibit cell growth by 50%.
(In general: Alamar Blue is a resazurin reagent that responds to reducing activity.)

For the next assay, the system named is SKBr3. The assay can be described thus: Cell growth inhibition by AlamarBlue method, SKBr3. Type of assay: cell-based. Particulars: Homo sapiens, SK-BR-3; SKBr3, 72 hours; read-out: Cell growth inhibition values (EC50) obtained with AlamarBlue method. The procedure: as §1, §2, §3

Take `CCCCn1c(Sc2cc(OC)ccc2OC)nc(C(N)=O)c1N` [Example 27, 5-amino-1-butyl-2-(2,5-dimethoxy-phenylsulfanyl)-1H-imidazole-4-carboxamide]: the IC50 at Hsp90α turned out to be 200 µM.
`Cn1c(Sc2nc3cccc(Cl)c3s2)nc(C(N)=O)c1N` [Example 51, 5-amino-2-(7-chloro-benzothiazol-2-ylsulfanyl)-1-methyl-1H-imidazole-4-carboxamide]: the half-inhibitory concentration (IC50) on Hsp90α stood at 3.1 µM.
`CC(=O)Nc1c(C(N)=O)nc(Sc2cc3c(cc2I)OCO3)n1CCCNC(C)C` [Example 69, 5-acetylamino-2-(6-iodo-benzo[1,3]dioxol-5-ylsulfanyl)-1-(3-isopropylamino-propyl)-1H-imidazole-4-carboxamide]: the IC50 at Hsp90α is 200 µM.
As to `Cn1c(Sc2cc3c(cc2Br)OCO3)nc(C(N)=O)c1N` [Example 73, 5-amino-2-[(6-bromo-1,3-benzodioxol-5-yl)thio]-1-methyl-1H-imidazole-4-carboxamide], in the assay with HCT-116, the EC50 was 78 µM. Also, on Hsp90α, the concentration for half-maximal inhibition (IC50) is 15 µM.
Regarding `CC(C)c1cc2c(cc1Sc1nc(C(N)=O)c(N)n1C)OCO2` [Example 75, 5-amino-2-[(6-isopropyl-1,3-benzodioxol-5-yl)thio]-1-methyl-1H-imidazole-4-carboxamide], the IC50 at Hsp90α came to 56 µM.
In the case of `C=Cc1cc2c(cc1Sc1nc(C(N)=O)c(N)n1C)OCO2` [Example 77, 5-amino-1-methyl-2-[(6-vinyl-1,3-benzodioxol-5-yl)thio]-1H-imidazole-4-carboxamide], the EC50 with HCT-116 and with SKBr3 was 39.2 µM each time. The IC50 on Hsp90α amounted to 4.5 µM.
As for `CCOc1cc2c(cc1Sc1nc(C(N)=O)c(N)n1C)OCO2` [Example 79, 5-amino-2-[(6-ethoxy-1,3-benzodioxol-5-yl)thio]-1-methyl-1H-imidazole-4-carboxamide], the EC50 in the assay with HCT-116 was 91.5 µM. On Hsp90α, the IC50 amounted to 12.5 µM.
For `CSc1cc2c(cc1Sc1nc(C(N)=O)c(N)n1C)OCO2` [Example 81, 5-amino-1-methyl-2-{[6-(methylthio)-1,3-benzodioxol-5-yl]thio}-1H-imidazole-4-carboxamide], the half-inhibitory concentration (IC50) at Hsp90α is 4 µM. Further, in the assay on SKBr3, the EC50 came out at 23 µM.
On to `Cn1c(Sc2cc3c(cc2S(C)(=O)=O)OCO3)nc(C(N)=O)c1N` [Example 83, 5-amino-1-methyl-2-{[6-(methylsulfonyl)-1,3-benzodioxol-5-yl]thio}-1H-imidazole-4-carboxamide], for which the EC50 in the assay with HCT-116 turned out to be 26.1 µM. Further, the IC50 at Hsp90α came out at 8 µM.
Turning to `Cn1c(Sc2cc3c(cc2I)OCO3)nc(C(N)=O)c1N` [Example 85, 5-amino-2-[(6-iodo-1,3-benzodioxol-5-yl)thio]-1-methyl-1H-imidazole-4-carboxamide], the IC50 at Hsp90α turned out to be 5.3 µM.
As for `NC(=O)c1nc(Sc2cc3c(cc2Br)OCO3)n(CCCN2CCOCC2)c1N` [Example 86, 5-amino-2-[(6-bromo-1,3-benzodioxol-5-yl)thio]-1-(3-morpholin-4-ylpropyl)-1H-imidazole-4-carboxamide], the EC50 with HCT-116 was 92 µM. Also, the IC50 on Hsp90α was found to be 3.4 µM.
`NC(=O)c1nc(Sc2cc3c(cc2I)OCO3)n(CCCN2CCOCC2)c1N` [Example 87, 5-amino-2-[(6-iodo-1,3-benzodioxol-5-yl)thio]-1-(3-morpholin-4-ylpropyl)-1H-imidazole-4-carboxamide]: the EC50 with HCT-116 was found to be 1 µM; with SKBr3 it was 4.6 µM. The IC50 at Hsp90α stood at 0.9 µM.
`CCN(CC)CCCn1c(Sc2cc3c(cc2I)OCO3)nc(C(N)=O)c1N` [Example 88, 5-Amino-2-[(6-iodo-1,3-benzodioxol-5-yl)thio]-1-[3-(diethylamino)propyl]-1H-imidazole-4-carboxamide]: the IC50 on Hsp90α worked out at 0.6 µM. The half-maximal effective concentration (EC50) in the assay on SKBr3 is 1.1 µM.
For the molecule `CCN(CC)CCCn1c(Sc2cc3c(cc2Br)OCO3)nc(C(N)=O)c1N` [Example 89, 5-amino-2-[(6-bromo-1,3-benzodioxol-5-yl)thio]-1-[3-(diethylamino)propyl]-1H-imidazole-4-carboxamide], the concentration for half-maximal inhibition (IC50) on Hsp90α is 4.8 µM. Also, the EC50 with SKBr3 was 18 µM.
`Cc1c(N)c(C(N)=O)nn1Cc1cc2c(cc1Br)OCO2` [Example 92, 4-amino-1-(6-bromo-benzol[1,3]dioxol-5-ylmethyl)-5-methyl-1H-pyrazole-3-carboxamide]: the half-maximal effective concentration (EC50) with HCT-116 turned out to be 21 µM.
`CC(=O)Nc1c(C(N)=O)nn(Cc2cc3c(cc2Br)OCO3)c1C` [Example 93, 4-(acetylamino)-1-[(6-bromo-1,3-benzodioxol-5-yl)methyl]-5-methyl-1H-pyrazole-3-carboxamide]: in the assay on HCT-116, the half-maximal effective concentration (EC50) was 30.5 µM.
The same measure, in the same setting: next, `CCC(=O)Nc1c(C(N)=O)nn(Cc2cc3c(cc2Br)OCO3)c1C` [Example 94, 1-[(6-bromo-1,3-benzodioxol-5-yl)methyl]-5-methyl-4-(propionylamino)-1H-pyrazole-3-carboxamide]: 2.1 µM.
Regarding `Cc1c(NS(C)(=O)=O)c(C(N)=O)nn1Cc1cc2c(cc1Br)OCO2` [Example 95, 1-[(6-bromo-1,3-benzodioxol-5-yl)methyl]-5-methyl-4-[(methylsulfonyl)amino]-1H-pyrazole-3-carboxamide], in the assay on HCT-116, the EC50 came to 83 µM.
Turning to `CCSc1cc2c(cc1Sc1nc(C(N)=O)c(N)n1CCCN(CC)CC)OCO2` [Example 100, 5-amino-2-{[6-(ethylthio)-1,3-benzodioxol-5-yl]thio}-1-[3-(diethylamino)propyl]-1H-imidazole-4-carboxamide], the EC50 with HCT-116 is 1.2 µM. Besides, the IC50 on Hsp90α came to 1.45 µM.

By IC50 is commonly meant the midpoint of a concentration-inhibition curve. One may read the EC50 as the concentration giving half of the maximal effect.
